Several values for one entry are separate records, joined by “and”; a condition that tells them apart may be missing. Equal entries are not always repeated. Where two headings read alike, the source gives them in different places.
What was measured:
[1] = system: CYP2B6; details: for CYP2B6 Indmax: mean from two experiments; for CYP2B6 % PB: relative to positive control phenobarbital, equation 2; for CYP2B6 induction: negative controls, any concentration tested (quinidine 0.1–250 μmol/L, flumazenil 0.05–50 μmol/L), data not shown
[2] = system: CYP3A4; details: in vivo induction value used for the RIS calibration; cited from earlier work
[3] = system: CYP3A4; details: for CYP3A4 RIS: mean of two experiments; for CYP3A4 % Rif: relative to positive control rifampicin, equation 2; for CYP3A4 Ind50: column headed Ind50 in Table 5; for CYP3A4 induction: negative controls, any concentration tested (quinidine 0.1–250 μmol/L, flumazenil 0.05–50 μmol/L), data not shown
[4] = upcyte Donor 10-03, mean from two experiments
[5] = upcyte Donor 10-03, values of two experiments
[6] = upcyte Donor 151-03, mean from two experiments
[7] = upcyte Donor 151-03, values of two experiments
[8] = upcyte Donor 422A-03, mean from two experiments
[9] = upcyte Donor 422A-03, values of two experiments
[10] = upcyte Donor 653-03, mean from two experiments
[11] = upcyte Donor 653-03, values of two experiments

## CO[C@H]1/C=C/O[C@@]2(C)Oc3c(C)c(O)c4c(O)c(c(/C=N/N5CCN(C)CC5)c(O)c4c3C2=O)NC(=O)/C(C)=C\C=C\[C@H](C)[C@H](O)[C@@H](C)[C@@H](O)[C@@H](C)[C@H](OC(C)=O)[C@@H]1C [Rifampicin, rifampicin]
[1]; upcyte Donor 10-03
  CYP2B6 Indmax: 2.0 fold
  CYP2B6 % PB: 34%
[1]; upcyte Donor 151-03
  CYP2B6 Indmax: 1.3 fold
  CYP2B6 % PB: 14%
[1]; upcyte Donor 422A-03
  CYP2B6 Indmax: 7.8 fold
  CYP2B6 % PB: 108%
[1]; upcyte Donor 653-03
  CYP2B6 Indmax: 1.6 fold
  CYP2B6 % PB: 29%

## NC(=O)N1c2ccccc2C=Cc2ccccc21 [Carbamazepine, carbamazepine]
[2]
  % Decrease in midazolam AUC: 95%
[3]; [4]
  CYP3A4 Indmax: 4.8 fold
[3]; upcyte Donor 10-03
  CYP3A4 RIS: 2.675
  CYP3A4 % Rif: 13%
[3]; [5]
  CYP3A4 Indmax: 5.5 fold and 4.1 fold
[3]; [6]
  CYP3A4 Indmax: 3.8 fold
[3]; upcyte Donor 151-03
  CYP3A4 RIS: 3.071
  CYP3A4 % Rif: 45%
[3]; [7]
  CYP3A4 Indmax: 4.2 fold and 3.4 fold
[3]; [8]
  CYP3A4 Indmax: 4.0 fold
[3]; upcyte Donor 422A-03
  CYP3A4 RIS: 1.940
  CYP3A4 % Rif: 28%
[3]; [9]
  CYP3A4 Indmax: 4.0 fold and 4.1 fold
[3]; upcyte Donor 653-03
  CYP3A4 Ind50: 52
  CYP3A4 RIS: 4.138
[3]; [10]
  CYP3A4 Indmax: 5.7 fold
[3]; [11]
  CYP3A4 Indmax: 6.2 fold and 5.2 fold
[1]; upcyte Donor 10-03
  CYP2B6 Indmax: 2.0 fold
  CYP2B6 % PB: 33%
[1]; upcyte Donor 151-03
  CYP2B6 Indmax: 2.3 fold
  CYP2B6 % PB: 68%
[1]; upcyte Donor 422A-03
  CYP2B6 Indmax: 4.3 fold
  CYP2B6 % PB: 52%
[1]; upcyte Donor 653-03
  CYP2B6 Indmax: 1.4 fold
  CYP2B6 % PB: 17%

## C=C[C@H]1C[N@@]2CC[C@H]1C[C@@H]2[C@@H](O)c1ccnc2ccc(OC)cc12 [Quinidine, quinidine]
[2]
  % Decrease in midazolam AUC: 0%
[3]
  CYP3A4 induction: did not induce
[3]; [4]
  CYP3A4 Indmax: No induction
[3]; upcyte Donor 10-03
  CYP3A4 RIS: No induction
  CYP3A4 % Rif: No induction
[3]; [5]
  CYP3A4 Indmax: No induction
[3]; [6]
  CYP3A4 Indmax: No induction
[3]; upcyte Donor 151-03
  CYP3A4 RIS: No induction
  CYP3A4 % Rif: No induction
[3]; [7]
  CYP3A4 Indmax: No induction
[3]; [8]
  CYP3A4 Indmax: No induction
[3]; upcyte Donor 422A-03
  CYP3A4 RIS: No induction
  CYP3A4 % Rif: No induction
[3]; [9]
  CYP3A4 Indmax: No induction
[3]; upcyte Donor 653-03
  CYP3A4 Ind50: No induction
  CYP3A4 RIS: No induction
[3]; [10]
  CYP3A4 Indmax: No induction
[3]; [11]
  CYP3A4 Indmax: No induction
[1]
  CYP2B6 induction: did not induce
[1]; upcyte Donor 10-03
  CYP2B6 Indmax: No induction
  CYP2B6 % PB: No induction
[1]; upcyte Donor 151-03
  CYP2B6 Indmax: No induction
  CYP2B6 % PB: No induction
[1]; upcyte Donor 422A-03
  CYP2B6 Indmax: No induction
  CYP2B6 % PB: No induction
[1]; upcyte Donor 653-03
  CYP2B6 Indmax: No induction
  CYP2B6 % PB: No induction

## Cc1c(C)c2c(c(C)c1O)CCC(C)(COc1ccc(CC3SC(=O)NC3=O)cc1)O2 (centres unmarked) [Troglitazone, troglitazone]
[2]
  % Decrease in midazolam AUC: 67%
[3]; [4]
  CYP3A4 Indmax: 4.7 fold
[3]; upcyte Donor 10-03
  CYP3A4 RIS: 0.083
  CYP3A4 % Rif: 12%
[3]; [5]
  CYP3A4 Indmax: 5.0 fold and 4.4 fold
[3]; [6]
  CYP3A4 Indmax: 1.8 fold
[3]; upcyte Donor 151-03
  CYP3A4 RIS: 0.094
  CYP3A4 % Rif: 13%
[3]; [7]
  CYP3A4 Indmax: 2.3 fold and 1.3 fold
[3]; [8]
  CYP3A4 Indmax: 2.7 fold
[3]; upcyte Donor 422A-03
  CYP3A4 RIS: 1.030
  CYP3A4 % Rif: 15%
[3]; [9]
  CYP3A4 Indmax: 2.6 fold and 2.7 fold
[3]; upcyte Donor 653-03
  CYP3A4 Ind50: 14
  CYP3A4 RIS: 0.466
[3]; [10]
  CYP3A4 Indmax: 2.2 fold
[3]; [11]
  CYP3A4 Indmax: 1.8 fold and 2.6 fold
[1]; upcyte Donor 10-03
  CYP2B6 Indmax: 5.4 fold
  CYP2B6 % PB: 150%
[1]; upcyte Donor 151-03
  CYP2B6 Indmax: 2.1 fold
  CYP2B6 % PB: 57%
[1]; upcyte Donor 422A-03
  CYP2B6 Indmax: 5.0 fold
  CYP2B6 % PB: 63%
[1]; upcyte Donor 653-03
  CYP2B6 Indmax: 2.3 fold
  CYP2B6 % PB: 63%

## CCOC(=O)c1ncn2c1CN(C)C(=O)c1cc(F)ccc1-2 [Flumazenil, flumazenil]
[2]
  % Decrease in midazolam AUC: 0%
[3]
  CYP3A4 induction: did not induce
[3]; [4]
  CYP3A4 Indmax: No induction
[3]; upcyte Donor 10-03
  CYP3A4 RIS: No induction
  CYP3A4 % Rif: No induction
[3]; [5]
  CYP3A4 Indmax: No induction
[3]; [6]
  CYP3A4 Indmax: No induction
[3]; upcyte Donor 151-03
  CYP3A4 RIS: No induction
  CYP3A4 % Rif: No induction
[3]; [7]
  CYP3A4 Indmax: No induction
[3]; [8]
  CYP3A4 Indmax: No induction
[3]; upcyte Donor 422A-03
  CYP3A4 RIS: No induction
  CYP3A4 % Rif: No induction
[3]; [9]
  CYP3A4 Indmax: No induction
[3]; upcyte Donor 653-03
  CYP3A4 Ind50: No induction
  CYP3A4 RIS: No induction
[3]; [10]
  CYP3A4 Indmax: No induction
[3]; [11]
  CYP3A4 Indmax: No induction
[1]
  CYP2B6 induction: did not induce
[1]; upcyte Donor 10-03
  CYP2B6 Indmax: No induction
  CYP2B6 % PB: No induction
[1]; upcyte Donor 151-03
  CYP2B6 Indmax: No induction
  CYP2B6 % PB: No induction
[1]; upcyte Donor 422A-03
  CYP2B6 Indmax: No induction
  CYP2B6 % PB: No induction
[1]; upcyte Donor 653-03
  CYP2B6 Indmax: No induction
  CYP2B6 % PB: No induction

## C[C@@H]1C[C@H]2[C@@H]3CCC4=CC(=O)C=C[C@]4(C)[C@@]3(F)[C@@H](O)C[C@]2(C)[C@@]1(O)C(=O)CO [Dexamethasone, dexamethasone]
[1]; upcyte Donor 10-03
  CYP2B6 Indmax: No induction
  CYP2B6 % PB: No induction
[1]; upcyte Donor 151-03
  CYP2B6 Indmax: No induction
  CYP2B6 % PB: No induction
[1]; upcyte Donor 422A-03
  CYP2B6 Indmax: No induction
  CYP2B6 % PB: No induction
[1]; upcyte Donor 653-03
  CYP2B6 Indmax: No induction
  CYP2B6 % PB: No induction

## CCC1(c2ccccc2)C(=O)NC(=O)NC1=O [Phenobarbital, phenobarbital]
[2]
  % Decrease in midazolam AUC: 70%
[3]; [4]
  CYP3A4 Indmax: 23.3 fold
[3]; upcyte Donor 10-03
  CYP3A4 RIS: 0.685
  CYP3A4 % Rif: 74%
[3]; [5]
  CYP3A4 Indmax: 23.8 fold and 22.9 fold
[3]; [6]
  CYP3A4 Indmax: 5.2 fold
[3]; upcyte Donor 151-03
  CYP3A4 RIS: 2.211
  CYP3A4 % Rif: 68%
[3]; [7]
  CYP3A4 Indmax: 5.5 fold and 5.0 fold
[3]; [8]
  CYP3A4 Indmax: 11.3 fold
[3]; upcyte Donor 422A-03
  CYP3A4 RIS: 1.727
  CYP3A4 % Rif: 95%
[3]; [9]
  CYP3A4 Indmax: 10.7 fold and 11.8 fold
[3]; upcyte Donor 653-03
  CYP3A4 Ind50: 120
  CYP3A4 RIS: 2.198
[3]; [10]
  CYP3A4 Indmax: 11.8 fold
[3]; [11]
  CYP3A4 Indmax: 13.0 fold and 10.5 fold
[1]; upcyte Donor 10-03
  CYP2B6 Indmax: 3.9 fold
  CYP2B6 % PB: 100%
[1]; upcyte Donor 151-03
  CYP2B6 Indmax: 2.9 fold
  CYP2B6 % PB: 100%
[1]; upcyte Donor 422A-03
  CYP2B6 Indmax: 7.3 fold
  CYP2B6 % PB: 100%
[1]; upcyte Donor 653-03
  CYP2B6 Indmax: 3.1 fold
  CYP2B6 % PB: 100%

## CCc1ccc(CCOc2ccc(CC3SC(=O)NC3=O)cc2)nc1 (centres unmarked) [Pioglitazone, pioglitazone]
[2]
  % Decrease in midazolam AUC: 26%
[3]; [4]
  CYP3A4 Indmax: 4.3 fold
[3]; upcyte Donor 10-03
  CYP3A4 RIS: 0.0079
  CYP3A4 % Rif: 11%
[3]; [5]
  CYP3A4 Indmax: 4.4 fold and 4.2 fold
[3]; [6]
  CYP3A4 Indmax: 4.0 fold
[3]; upcyte Donor 151-03
  CYP3A4 RIS: 0.0040
  CYP3A4 % Rif: 48%
[3]; [7]
  CYP3A4 Indmax: 4.0, 4.0 fold
[3]; [8]
  CYP3A4 Indmax: 2.6 fold
[3]; upcyte Donor 422A-03
  CYP3A4 RIS: 0.0040
  CYP3A4 % Rif: 14%
[3]; [9]
  CYP3A4 Indmax: 2.3 fold and 2.8 fold
[3]; upcyte Donor 653-03
  CYP3A4 Ind50: 91
  CYP3A4 RIS: 0.0066
[3]; [10]
  CYP3A4 Indmax: 9.2 fold
[1]; upcyte Donor 10-03
  CYP2B6 Indmax: 2.6 fold
  CYP2B6 % PB: 55%
[1]; upcyte Donor 151-03
  CYP2B6 Indmax: 1.9 fold
  CYP2B6 % PB: 49%
[1]; upcyte Donor 422A-03
  CYP2B6 Indmax: 3.6 fold
  CYP2B6 % PB: 42%
[1]; upcyte Donor 653-03
  CYP2B6 Indmax: 2.1 fold
  CYP2B6 % PB: 54%

## O=C1NC(=O)C(c2ccccc2)(c2ccccc2)N1 [Phenytoin, phenytoin]
[2]
  % Decrease in midazolam AUC: 94%
[3]; [4]
  CYP3A4 Indmax: 14.6 fold
[3]; upcyte Donor 10-03
  CYP3A4 RIS: 1.970
  CYP3A4 % Rif: 45%
[3]; [6]
  CYP3A4 Indmax: 4.7 fold
[3]; upcyte Donor 151-03
  CYP3A4 RIS: 3.908
  CYP3A4 % Rif: 60%
[3]; [7]
  CYP3A4 Indmax: 5.7 fold and 3.8 fold
[3]; [8]
  CYP3A4 Indmax: 15.8 fold
[3]; upcyte Donor 422A-03
  CYP3A4 RIS: 0.464
  CYP3A4 % Rif: 137%
[3]; [9]
  CYP3A4 Indmax: 14.8 fold and 16.9 fold
[3]; upcyte Donor 653-03
  CYP3A4 induction, % of rifampicin maximal induction: 120%
  CYP3A4 Ind50: 59
  CYP3A4 RIS: 4.341
[3]; [10]
  CYP3A4 Indmax: 6.3 fold
[3]; [11]
  CYP3A4 Indmax: 7.4 fold and 5.2 fold
[1]; upcyte Donor 10-03
  CYP2B6 Indmax: 3.6 fold
  CYP2B6 % PB: 88%
[1]; upcyte Donor 151-03
  CYP2B6 Indmax: 2.7 fold
  CYP2B6 % PB: 89%
[1]; upcyte Donor 422A-03
  CYP2B6 Indmax: 4.0 fold
  CYP2B6 % PB: 48%
[1]; upcyte Donor 653-03
  CYP2B6 Indmax: 2.8 fold
  CYP2B6 % PB: 85%

Reference: publication PMC4618636 (Pharmacology Research & Perspectives, 2015)
